Data from US20240350522A1, “HYGROMYCIN A FOR TREATMENT OF DISEASES AND INFECTIONS” (FLIGHTPATH BIOSCIENCES, INC., priority 2021, published 2024).
“And” between values parts separate entries of the source, which are not always exact repeats. Equal entries are not always repeated. Where two headings read alike, the source gives them in different places.

Assays:
[1] = system: Parvimonas micra (ATCC 33270); test: MIC of Hyg A against P. micra; format: cell-based; settings: ATCC33270
[2] = system: Streptococcus salivarius ATCC13419; test: MBC of Hyg A against S. salivarius; format: cell-based
[3] = system: F. nucleatum animalis; test: Kirby-Bauer diffusion assay; format: cell-based, Fusobacterium nucleatum; settings: for zone of inhibition at 5 µg/disc / zone of inhibition at 10 µg/disc / zone of inhibition at 20 µg/disc / zone of inhibition at 40 µg/disc: Fusobacterium nucleatum, mean (SEM), read-out: size of zone inhibition (mm); for zone of inhibition at 5 µg/disc: Hyg A 5 μg per disc; for zone of inhibition at 10 µg/disc: Hyg A 10 μg per disc; for zone of inhibition at 20 µg/disc: Hyg A 20 μg per disc; for zone of inhibition at 40 µg/disc: Hyg A 40 μg per disc
Description: (§1) Three representatives of 6 subspecies of Fusobacterium nucleatum (F. nucleatum) for a total of 18 strains were tested in the experiment. The sub species and strains are described in Table 2.
(§2) All strains were verified by 16S V3/V6 sequence analysis prior to use. The methods described herein were performed in an anaerobic chamber at 37° C. All media and plates were degassed prior to use.
(§3) Hygromycin A (Hyg A) discs were prepared by solubilizing Hyg A in distilled water and sterile filtered. Clindamycin was used as a positive control. Defined amounts of hygromycin A (40, 20, 10 or 5 micrograms), clindamycin (2 micrograms) or sterile distilled water were absorbed onto Kirby-Bauer discs in a biosafety cabinet.
(§4) An overnight culture was grown in Wilkins-Chalgren (WC) broth and back-diluted 1:10 in fresh broth. When an OD 600 reading reached 0.5, 300 μL of the log phase culture was plated onto WC agar plates. The plates were sectioned into quadrants and a Kirby-Bauer (KB) disc impregnated with a defined amount of hygromycin A was placed in each quadrant. Plates were prepared thus in triplicate and the four amounts of hygromycin A were 40, 20 10 and 5 micrograms. The same volume of culture was spread on fourth plate sectioned into six sections for three positive and three negative controls. KB discs with water served as negative controls and KB discs impregnated with 2 micrograms of clindamycin served as positive controls. […] Table 3, Table 4, Table 5, Table 6, Table 7, Table 8 show the mean size of zone inhibitions for each of the subspecies tested using increasing concentrations of hygromycin A where the standard error of mean is represented in parenthesis.
(§5) The amount of hygromycin A was plotted against the size of the zone of inhibition for each strain tested.

[4] = system: F. nucleatum vincentii; test: Kirby-Bauer diffusion assay; format: cell-based, Fusobacterium nucleatum; settings: for zone of inhibition at 5 µg/disc / zone of inhibition at 10 µg/disc / zone of inhibition at 20 µg/disc / zone of inhibition at 40 µg/disc: Fusobacterium nucleatum, mean (SEM), read-out: size of zone inhibition (mm); for zone of inhibition at 5 µg/disc: Hyg A 5 μg per disc; for zone of inhibition at 10 µg/disc: Hyg A 10 μg per disc; for zone of inhibition at 20 µg/disc: Hyg A 20 μg per disc; for zone of inhibition at 40 µg/disc: Hyg A 40 μg per disc
Description: as §1, §2, §3, §4, §5

[5] = system: F. nucleatum fusiforme; test: Kirby-Bauer diffusion assay; format: cell-based; settings: Fusobacterium nucleatum, mean (SEM), read-out: size of zone inhibition (mm); for zone of inhibition at 5 µg/disc: Hyg A 5 μg per disc; for zone of inhibition at 10 µg/disc: Hyg A 10 μg per disc; for zone of inhibition at 20 µg/disc: Hyg A 20 μg per disc; for zone of inhibition at 40 µg/disc: Hyg A 40 μg per disc
Description: as §1, §2, §3, §4, §5

[6] = system: F. nucleatum nucleatum; test: Kirby-Bauer diffusion assay; format: cell-based; settings: Fusobacterium nucleatum, mean (SEM), read-out: size of zone inhibition (mm); for zone of inhibition at 5 µg/disc: Hyg A 5 μg per disc; for zone of inhibition at 10 µg/disc: Hyg A 10 μg per disc; for zone of inhibition at 20 µg/disc: Hyg A 20 μg per disc; for zone of inhibition at 40 µg/disc: Hyg A 40 μg per disc
Description: as §1, §2, §3, §4, §5

[7] = system: F. nucleatum periodonticum; test: Kirby-Bauer diffusion assay; format: cell-based; settings: Fusobacterium nucleatum, mean (SEM), read-out: size of zone inhibition (mm); for zone of inhibition at 5 µg/disc: Hyg A 5 μg per disc; for zone of inhibition at 10 µg/disc: Hyg A 10 μg per disc; for zone of inhibition at 20 µg/disc: Hyg A 20 μg per disc; for zone of inhibition at 40 µg/disc: Hyg A 40 μg per disc
Description: as §1, §2, §3, §4, §5

[8] = system: F. nucleatum polymorphum; test: Kirby-Bauer diffusion assay; format: cell-based; settings: Fusobacterium nucleatum, mean (SEM), read-out: size of zone inhibition (mm); for zone of inhibition at 5 µg/disc: Hyg A 5 μg per disc; for zone of inhibition at 10 µg/disc: Hyg A 10 μg per disc; for zone of inhibition at 20 µg/disc: Hyg A 20 μg per disc; for zone of inhibition at 40 µg/disc: Hyg A 40 μg per disc
Description: as §1, §2, §3, §4, §5

[9] = system: Treponema pallidum pallidum SS14 strain; test: T. pallidum susceptibility assay, co-culture with Sf1Ep cells, tp0574 (T47) qPCR after 7 days; format: cell-based; settings: for Mean T47 copies/μL, Average / Mean T47 copies/μL, experimental values: 7 days; for Mean T47 copies/μL, Average: average of 8 replicates; for Mean T47 copies/μL, experimental values: replicate wells
[10] = strain 203C15, 42 mm = assigned maximum
[11] = strain 203L25, 42 mm = assigned maximum
[12] = strain 25586 (second column so headed)
[13] = strain 25586, 42 mm = assigned maximum

## CC(=O)[C@H]1O[C@@H](Oc2ccc(/C=C(\C)C(=O)N[C@@H]3[C@H](O)[C@@H](O)[C@H]4OCO[C@H]4[C@@H]3O)cc2O)[C@@H](O)[C@@H]1O [Hyg A, Hygromycin A]
[1]; Parvimonas micra ATCC 33270, read-out: MIC
  MIC: 2 µg/mL
[1]; Parvimonas micra, P. micra 33270, experiment 1, read-out: MIC (μg/ml) 1
  MIC: 2 µg/mL
[1]; Parvimonas micra, P. micra 33270, experiment 2, read-out: MIC (μg/ml) 2
  MIC: 2 µg/mL
[2]; S. salivarius 13419
  MIC:MBC ratio: 10
[2]; Streptococcus salivarius ATCC13419, read-out: MBC
  MBC: 10 µg/mL
[2]; Streptococcus salivarius, ATCC13419, S. salivarius 13419, experiment 1, read-out: MBC (μg/ml) 1
  MBC: 10 µg/mL
[2]; Streptococcus salivarius, ATCC13419, S. salivarius 13419, experiment 2, read-out: MBC (μg/ml) 2
  MBC: 10 µg/mL
[3]; strain 7_1
  zone of inhibition at 5 µg/disc: 18.3 mm
  zone of inhibition at 10 µg/disc: 18 mm
  zone of inhibition at 20 µg/disc: 22.7 mm
  zone of inhibition at 40 µg/disc: 24.3 mm
[3]; strain 218A8
  zone of inhibition at 5 µg/disc: 19.7 mm
  zone of inhibition at 10 µg/disc: 21.7 mm
  zone of inhibition at 20 µg/disc: 29.7 mm
[3]; strain 218A8, 42 mm = assigned maximum
  zone of inhibition at 40 µg/disc: 42 mm
[3]; strain CRC 7_3 JVN3C1
  zone of inhibition at 5 µg/disc: 0 mm
  zone of inhibition at 10 µg/disc: 0 mm
  zone of inhibition at 20 µg/disc: 0 mm
  zone of inhibition at 40 µg/disc: 0 mm
[3]; strain CRC 7_3JVN3C1, 5-40 μg discs
  strain sensitivity in words: fully resistant
[4]; strain 3/1/36A2
  zone of inhibition at 5 µg/disc: 19 mm
  zone of inhibition at 10 µg/disc: 21.3 mm
  zone of inhibition at 20 µg/disc: 24.7 mm
  zone of inhibition at 40 µg/disc: 27.7 mm
[4]; strain 215A9
  zone of inhibition at 5 µg/disc: 0 mm
  zone of inhibition at 10 µg/disc: 0 mm
  zone of inhibition at 20 µg/disc: 0 mm
  zone of inhibition at 40 µg/disc: 0 mm
[4]; strain CC53
  zone of inhibition at 5 µg/disc: 16.3 mm
  zone of inhibition at 10 µg/disc: 21.3 mm
  zone of inhibition at 20 µg/disc: 24 mm
  zone of inhibition at 40 µg/disc: 27.3 mm
[4]; strain 215A9, 5-40 μg discs
  strain sensitivity in words: fully resistant
[5]; strain 203C15
  zone of inhibition at 5 µg/disc: 18 mm
  zone of inhibition at 10 µg/disc: 24 mm
[5]; [10]
  zone of inhibition at 20 µg/disc: 42 mm
  zone of inhibition at 40 µg/disc: 42 mm
[5]; strain 203L25
  zone of inhibition at 5 µg/disc: 25 mm
  zone of inhibition at 10 µg/disc: 28.7 mm
[5]; [11]
  zone of inhibition at 20 µg/disc: 42 mm
  zone of inhibition at 40 µg/disc: 42 mm
[5]; strain 203L30
  zone of inhibition at 5 µg/disc: 22.3 mm
  zone of inhibition at 10 µg/disc: 24.3 mm
  zone of inhibition at 20 µg/disc: 28 mm
  zone of inhibition at 40 µg/disc: 30 mm
[6]; strain 203L34
  zone of inhibition at 5 µg/disc: 24 mm
  zone of inhibition at 10 µg/disc: 30 mm
  zone of inhibition at 20 µg/disc: 39.7 mm
[6]; strain 203L34, 42 mm = assigned maximum
  zone of inhibition at 40 µg/disc: 42 mm
[6]; strain 25586 (first column)
  zone of inhibition at 5 µg/disc: 16 mm
  zone of inhibition at 10 µg/disc: 20 mm
[6]; [12]
  zone of inhibition at 5 µg/disc: 25.7 mm
  zone of inhibition at 10 µg/disc: 30 mm
[6]; [13]
  zone of inhibition at 20 µg/disc: 42 mm
  zone of inhibition at 40 µg/disc: 42 mm
[6]; strain 25586
  zone of inhibition at 20 µg/disc: 26 mm
  zone of inhibition at 40 µg/disc: 30 mm
[7]; strain 2_1_31 EAV015
  zone of inhibition at 5 µg/disc: 20.3 mm
  zone of inhibition at 10 µg/disc: 23.3 mm
  zone of inhibition at 20 µg/disc: 25.3 mm
  zone of inhibition at 40 µg/disc: 30 mm
[7]; strain 3_1_7B
  zone of inhibition at 5 µg/disc: 29.3 mm
  zone of inhibition at 10 µg/disc: 34.3 mm
  zone of inhibition at 20 µg/disc: 36 mm
  zone of inhibition at 40 µg/disc: 40 mm
[7]; strain 209B32
  zone of inhibition at 5 µg/disc: 22 mm
  zone of inhibition at 10 µg/disc: 25.7 mm
  zone of inhibition at 20 µg/disc: 30.7 mm
  zone of inhibition at 40 µg/disc: 35 mm
[8]; strain 13_3C EAV005
  zone of inhibition at 5 µg/disc: 16.7 mm
  zone of inhibition at 10 µg/disc: 20 mm
  zone of inhibition at 20 µg/disc: 25.7 mm
  zone of inhibition at 40 µg/disc: 27.3 mm
[8]; strain 203L28
  zone of inhibition at 5 µg/disc: 20.3 mm
  zone of inhibition at 10 µg/disc: 23 mm
  zone of inhibition at 20 µg/disc: 24 mm
  zone of inhibition at 40 µg/disc: 30.3 mm
[8]; strain 203L29
  zone of inhibition at 5 µg/disc: 18.3 mm
  zone of inhibition at 10 µg/disc: 20.3 mm
  zone of inhibition at 20 µg/disc: 24 mm
  zone of inhibition at 40 µg/disc: 26.7 mm
[9]; Hyg A 0.03 μg/ml
  Mean T47 copies/μL, Average: 2768 copies/μL
[9]; Hyg A 0.06 μg/ml
  Mean T47 copies/μL, Average: 916 copies/μL
  Mean T47 copies/μL, experimental values: 713 copies/μL and 883 copies/μL and 851 copies/μL and 1260 copies/μL
[9]; Hyg A 0.12 μg/ml
  Mean T47 copies/μL, Average: 737 copies/μL
  Mean T47 copies/μL, experimental values: 372 copies/μL and 629 copies/μL and 710 copies/μL and 787 copies/μL and 926 copies/μL and 951 copies/μL and 965 copies/μL and 552 copies/μL
[9]; Hyg A 0.24 μg/ml
  Mean T47 copies/μL, Average: 516 copies/μL
  Mean T47 copies/μL, experimental values: 510 copies/μL and 491 copies/μL and 572 copies/μL and 587 copies/μL and 564 copies/μL and 600 copies/μL and 441 copies/μL and 360 copies/μL
[9]; Hyg A 0.48 μg/ml
  Mean T47 copies/μL, Average: 426 copies/μL
  Mean T47 copies/μL, experimental values: 327 copies/μL and 435 copies/μL and 503 copies/μL and 508 copies/μL and 487 copies/μL and 453 copies/μL and 342 copies/μL and 352 copies/μL
[9]; Hyg A 0.96 μg/ml
  Mean T47 copies/μL, Average: 319 copies/μL
  Mean T47 copies/μL, experimental values: 150 copies/μL and 307 copies/μL and 435 copies/μL and 361 copies/μL and 405 copies/μL and 327 copies/μL and 299 copies/μL and 268 copies/μL
[9]; Hyg A 1.92 μg/ml
  Mean T47 copies/μL, Average: 323 copies/μL
[9]; Hyg A 3.84 μg/ml
  Mean T47 copies/μL, Average: 275 copies/μL
[9]; SS14 strain, ANOVA p<0.05
  lowest concentration effective against growth (no significant difference to higher concentrations): 1.92 µg/mL
